Laboratory results as given in patent US10947213B1 (Merck Patent GmbH, priority 2015, dated 2021).
Where a name gives a salt, the structure may show the parent alone.

Biological target: T1, TLR7/NFKb HEK cells (Homo sapiens, UniProt Q9NYK1)
T1 construct: expressed in transfected cells; host or cells: HEK cells (TLR7/NFKb reporter line)
T1 sequence (Q9NYK1 27-1049): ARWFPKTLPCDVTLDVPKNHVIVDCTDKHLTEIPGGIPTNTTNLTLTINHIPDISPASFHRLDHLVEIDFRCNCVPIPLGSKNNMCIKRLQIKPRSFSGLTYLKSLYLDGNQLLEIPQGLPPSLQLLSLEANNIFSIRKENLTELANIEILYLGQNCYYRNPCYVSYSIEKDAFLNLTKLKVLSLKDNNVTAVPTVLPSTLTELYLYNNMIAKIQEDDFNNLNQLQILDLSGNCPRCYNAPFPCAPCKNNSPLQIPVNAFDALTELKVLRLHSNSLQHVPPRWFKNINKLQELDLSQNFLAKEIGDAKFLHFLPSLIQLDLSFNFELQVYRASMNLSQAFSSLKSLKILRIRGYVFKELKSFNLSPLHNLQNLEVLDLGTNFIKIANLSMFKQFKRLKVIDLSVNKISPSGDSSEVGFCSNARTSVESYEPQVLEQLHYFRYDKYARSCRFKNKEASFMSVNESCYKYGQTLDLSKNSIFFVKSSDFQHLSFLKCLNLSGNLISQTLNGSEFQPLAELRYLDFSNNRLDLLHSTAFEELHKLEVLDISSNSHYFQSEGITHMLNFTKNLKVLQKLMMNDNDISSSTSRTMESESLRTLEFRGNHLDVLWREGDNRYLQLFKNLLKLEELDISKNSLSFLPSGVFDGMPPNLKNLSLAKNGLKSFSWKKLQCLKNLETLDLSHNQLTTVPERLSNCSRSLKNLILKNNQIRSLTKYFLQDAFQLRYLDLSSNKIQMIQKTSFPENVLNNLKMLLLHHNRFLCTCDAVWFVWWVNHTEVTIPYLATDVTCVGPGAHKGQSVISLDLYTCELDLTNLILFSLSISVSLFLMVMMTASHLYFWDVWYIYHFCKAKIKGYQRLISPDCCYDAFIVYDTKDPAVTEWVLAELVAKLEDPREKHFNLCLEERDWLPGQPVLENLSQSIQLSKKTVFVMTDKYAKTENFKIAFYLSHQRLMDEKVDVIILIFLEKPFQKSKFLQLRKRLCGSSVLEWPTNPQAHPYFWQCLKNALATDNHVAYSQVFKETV
Experiment: HEK Cell Assay (TLR7/NFKb reporter, Steady-Glo luciferase readout)
Type: cell-based
Settings: 30 min compound preincubation, then R*48 agonist for 5 hours, read-out: Potency
How it was run: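 Steady-Glo luminescence after 5 h stimulation with R*48 agonist, following 30 min compound preincubation. Assay run in HEK cells carrying a TLR7/NFKb luciferase reporter, plated at 5000 cells/well and grown 24 h at 37° C (10% CO2) before treatment.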

CC(C(=O)N[C@@H]1C[C@H](C)CN(c2ccc(C#N)c3nccnc23)C1)N1CC(F)(F)C1 (stereo partly drawn) [Compound 273, N-[(3R,5S)-1-(8-cyanoquinoxalin-5-yl)-5-methylpiperidin-3-yl]-2-(3,3-difluoroazetidin-1-yl)propanamide] and CC(C(=O)N[C@@H]1C[C@H](C)CN(c2ccc(C(F)(F)F)c3nccnc23)C1)N1CC(F)(F)C1 (stereo partly drawn) [Compound 299, 2-(3,3-difluoroazetidin-1-yl)-N-[(3R,5S)-5-methyl-1-[8-(trifluoromethyl)quinoxalin-5-yl]piperidin-3-yl]propanamide] fall in the same range of IC50: 1000 to 10000 nM for the first, 1000 to 10000 nM for the second.

C[C@H]1C[C@@H](NC(=O)CC2CNC2)CN(c2ccc(C#N)c3nccnc23)C1 [Compound 274, 2-(azetidin-3-yl)-N-[(3R,5S)-1-(8-cyanoquinoxalin-5-yl)-5-methylpiperidin-3-yl]acetamide] and C[C@H]1C[C@@H](NC(=O)CC2CNC2)CN(c2ccc(C(F)(F)F)c3nccnc23)C1 [Compound 300, 2-(azetidin-3-yl)-N-[(3R,5S)-5-methyl-1-[8-(trifluoromethyl)quinoxalin-5-yl]piperidin-3-yl]acetamide] cannot be ordered by IC50: less than 1000 nM for the first, less than 1000 nM for the second.

CC(C(=O)N[C@@H]1C[C@H](C)CN(c2ccc(C#N)c3nccnc23)C1)N1CCC(O)CC1 (stereo partly drawn) [Compound 275, N-[(3R,5S)-1-(8-cyanoquinoxalin-5-yl)-5-methylpiperidin-3-yl]-2-(4-hydroxypiperidin-1-yl)propanamide] and CC(C(=O)N[C@@H]1C[C@H](C)CN(c2ccc(C(F)(F)F)c3ncccc23)C1)N1CCC(O)CC1 (stereo partly drawn) [Compound 289, 2-(4-hydroxypiperidin-1-yl)-N-[(3R,5S)-5-methyl-1-[8-(trifluoromethyl)quinolin-5-yl]piperidin-3-yl]propanamide] cannot be ordered by IC50: less than 1000 nM for the first, less than 1000 nM for the second.

C[C@H]1C[C@@H](NC(=O)CN2CCCN(C)CC2)CN(c2ccc(C#N)c3nccnc23)C1 [Compound 276, N-[(3R,5S)-1-(8-cyanoquinoxalin-5-yl)-5-methylpiperidin-3-yl]-2-(4-methyl-1,4-diazepan-1-yl)acetamide] and C[C@H]1C[C@@H](NC(=O)CN2CCCN(C)CC2)CN(c2ccc(C(F)(F)F)c3ncccc23)C1 [Compound 290, 2-(4-methyl-1,4-diazepan-1-yl)-N-[(3R,5S)-5-methyl-1-[8-(trifluoromethyl)quinolin-5-yl]piperidin-3-yl]acetamide] cannot be ordered by IC50: less than 1000 nM for the first, less than 1000 nM for the second.

C[C@H]1C[C@@H](NC(=O)CC(C)(C)CN)CN(c2ccc(C#N)c3nccnc23)C1 [Compound 277, 4-amino-N-[(3R,5S)-1-(8-cyanoquinoxalin-5-yl)-5-methylpiperidin-3-yl]-3,3-dimethylbutanamide] and C[C@H]1C[C@@H](NC(=O)CC(C)(C)CN)CN(c2ccc(C(F)(F)F)c3nccnc23)C1 [Compound 301, 4-amino-3,3-dimethyl-N-[(3R,5S)-5-methyl-1-[8-(trifluoromethyl)quinoxalin-5-yl]piperidin-3-yl]butanamide] cannot be ordered by IC50: less than 1000 nM for the first, less than 1000 nM for the second.

CC(O)C(=O)N[C@@H]1C[C@H](C)CN(c2ccc(C(F)(F)F)c3ncccc23)C1 (stereo partly drawn) [Compound 278, 2-hydroxy-N-[(3R,5S)-5-methyl-1-[8-(trifluoromethyl)quinolin-5-yl]piperidin-3-yl]propanamide] and CC(C(=O)N[C@@H]1C[C@H](C)CN(c2ccc(C(F)(F)F)c3ncccc23)C1)N1CC(O)C1 (stereo partly drawn) [Compound 285, 2-(3-hydroxyazetidin-1-yl)-N-[(3R,5S)-5-methyl-1-[8-(trifluoromethyl)quinolin-5-yl]piperidin-3-yl]propanamide] cannot be ordered by IC50: less than 1000 nM for the first, less than 1000 nM for the second.

C[C@H]1C[C@@H](NC(=O)CC2CCCN(C)C2)CN(c2ccc(C(F)(F)F)c3ncccc23)C1 (stereo partly drawn) [Compound 279, N-[(3R,5S)-5-methyl-1-[8-(trifluoromethyl)quinolin-5-yl]piperidin-3-yl]-2-(1-methylpiperidin-3-yl)acetamide] and C[C@H]1C[C@@H](NC(=O)CC2CCN(C)C2)CN(c2ccc(C(F)(F)F)c3ncccc23)C1 (stereo partly drawn) [Compound 283, N-[(3R,5S)-5-methyl-1-[8-(trifluoromethyl)quinolin-5-yl]piperidin-3-yl]-2-(1-methylpyrrolidin-3-yl)acetamide hydrochloride] cannot be ordered by IC50: less than 1000 nM for the first, less than 1000 nM for the second.

C[C@H]1C[C@@H](NC(=O)CN2CC(N)C2)CN(c2ccc(C(F)(F)F)c3ncccc23)C1 [Compound 280, 2-(3-aminoazetidin-1-yl)-N-[(3R,5S)-5-methyl-1-[8-(trifluoromethyl)quinolin-5-yl]piperidin-3-yl]acetamide] and C[C@H]1C[C@@H](NC(=O)CN2CC(O)C2)CN(c2ccc(C(F)(F)F)c3ncccc23)C1 [Compound 284] cannot be ordered by IC50: less than 1000 nM for the first, less than 1000 nM for the second.

CC(C(=O)N[C@@H]1C[C@H](C)CN(c2ccc(C(F)(F)F)c3ncccc23)C1)N1CC(N)C1 (stereo partly drawn) [Compound 281, 2-(3-aminoazetidin-1-yl)-N-[(3R,5S)-5-methyl-1-[8-(trifluoromethyl)quinolin-5-yl]piperidin-3-yl]propanamide] and CC(C(=O)N[C@@H]1C[C@H](C)CN(c2ccc(C(F)(F)F)c3ncccc23)C1)N1CC(F)(F)C1 (stereo partly drawn) [Compound 287, 2-(3,3-difluoroazetidin-1-yl)-N-[(3R,5S)-5-methyl-1-[8-(trifluoromethyl)quinolin-5-yl]piperidin-3-yl]propanamide] cannot be ordered by IC50: less than 1000 nM for the first, less than 1000 nM for the second.

C[C@H]1C[C@@H](NC(=O)C(N)C2CC2)CN(c2ccc(C(F)(F)F)c3ncccc23)C1 (stereo partly drawn) [Compound 282, 2-amino-2-cyclopropyl-N-[(3R,5S)-5-methyl-1-[8-(trifluoromethyl)quinolin-5-yl]piperidin-3-yl]acetamide] and C[C@H]1C[C@@H](NC(=O)C(N)C2CC2)CN(c2ccc(C(F)(F)F)c3nccnc23)C1 (stereo partly drawn) [Compound 294, 2-amino-2-cyclopropyl-N-[(3R,5S)-5-methyl-1-[8-(trifluoromethyl)quinoxalin-5-yl]piperidin-3-yl]acetamide] cannot be ordered by IC50: less than 1000 nM for the first, less than 1000 nM for the second.

C[C@H]1C[C@@H](NC(=O)CC2CC2(F)F)CN(c2ccc(C(F)(F)F)c3ncccc23)C1 (stereo partly drawn) [Compound 286, 2-(2,2-difluorocyclopropyl)-N-[(3R,5S)-5-methyl-1-[8-(trifluoromethyl)quinolin-5-yl]piperidin-3-yl]acetamide] and C[C@H]1C[C@@H](NC(=O)CC2CC2(F)F)CN(c2ccc(C(F)(F)F)c3nccnc23)C1 (stereo partly drawn) [Compound 298, 2-(2,2-difluorocyclopropyl)-N-[(3R,5S)-5-methyl-1-[8-(trifluoromethyl)quinoxalin-5-yl]piperidin-3-yl]acetamide] cannot be ordered by IC50: less than 1000 nM for the first, less than 1000 nM for the second.

C[C@H]1C[C@@H](NC(=O)CC2CNC2)CN(c2ccc(C(F)(F)F)c3ncccc23)C1 [Compound 288, 2-(azetidin-3-yl)-N-[(3R,5S)-5-methyl-1-[8-(trifluoromethyl)quinolin-5-yl]piperidin-3-yl]acetamide] and C[C@H]1C[C@@H](NC(=O)CC(C)(C)CN)CN(c2ccc(C(F)(F)F)c3ncccc23)C1 [Compound 291, 4-amino-3,3-dimethyl-N-[(3R,5S)-5-methyl-1-[8-(trifluoromethyl)quinolin-5-yl]piperidin-3-yl]butanamide] cannot be ordered by IC50: less than 1000 nM for the first, less than 1000 nM for the second.

First: CC(O)C(=O)N[C@@H]1C[C@H](C)CN(c2ccc(C(F)(F)F)c3nccnc23)C1 (stereo partly drawn) [Compound 292, 2-hydroxy-N-[(3R,5S)-5-methyl-1-[8-(trifluoromethyl)quinoxalin-5-yl]piperidin-3-yl]propanamide]
Second: CC(C(=O)N[C@@H]1C[C@H](C)CN(c2ccc(C(F)(F)F)c3nccnc23)C1)N1CC(O)C1 (some centres unmarked) [Compound 297]
The IC50 of the first is higher: 1000 to 10000 nM for the first, less than 1000 nM for the second. The second is the more potent here.

C[C@H]1C[C@@H](NC(=O)CC2CCCN(C)C2)CN(c2ccc(C(F)(F)F)c3nccnc23)C1 (stereo partly drawn) [Compound 293, N-[(3R,5S)-5-methyl-1-[8-(trifluoromethyl)quinoxalin-5-yl]piperidin-3-yl]-2-(1-methylpiperidin-3-yl)acetamide] and C[C@H]1C[C@@H](NC(=O)CC2CCN(C)C2)CN(c2ccc(C(F)(F)F)c3nccnc23)C1 (stereo partly drawn) [Compound 295, N-[(3R,5S)-5-methyl-1-[8-(trifluoromethyl)quinoxalin-5-yl]piperidin-3-yl]-2-(1-methylpyrrolidin-3-yl)acetamide] cannot be ordered by IC50: less than 1000 nM for the first, less than 1000 nM for the second.

C[C@H]1C[C@@H](NC(=O)CN2CC(O)C2)CN(c2ccc(C(F)(F)F)c3nccnc23)C1 [Compound 296, 2-(3-hydroxyazetidin-1-yl)-N-[(3R,5S)-5-methyl-1-[8-(trifluoromethyl)quinoxalin-5-yl]piperidin-3-yl]acetamide] gave an IC50 of less than 1000 nM.
